Assay results as given in patent publication US20210379077A1, “TOPOISOMERASE II CATALYTIC INHIBITOR COMPOUND THERAPEUTICS FOR CANCER TREATMENT, METHODS AND USES” (The University of British Columbia, priority 2018, published 2021).

Columns and labels:
pHOT plasmid DNA = test: DNA intercalating assay; details: 0, 5, 10, 25 and 50 μM, compared with m-AMSA
Procedure: (§1) DNA samples were separated by electrophoresis on 0.8% agarose gels and visualized by ethium bromide staining. The positions of K-DNA and decatenated (D) DNA products are marked by arrows. Experiments were repeated five times and the densitometry of the D bands were used to establish an inhibition curve to calculate IC50. (b) Supercoiled pHOT™ plasmid was incubated with human TOP2a in the presence of 50 μM Etopside, 50 uM ICRF193 or 0-50 μM of compound #60 (Top60) compound at 37° C. for 1 hour. DNA products were separated by electrophoresis on 1% agarose gels and visualized by ethium bromide staining. The positions of supercoiled (SC), nicked (N), and relaxed (R) DNA bands are marked by arrows. Experiments were repeated five times and the densitometiy of the SC bands were used to establish an inhibition curve to calculate IC50. (c) Supercoiled pHOT™ plasmid was incubated with Topoisomerase I prior to addition of either mAMSA or compound #60 (Top60) at concentrations of 0, 5, 10, 25 and 50 μM at 37° C. for 30 minutes. […]
Top60 is a catalytic inhibitor of Topo II To verify that our lead Compound 60(Top60), the formation of ds DNA breaks was assayed both in and outside of cells. […] Furthermore, H2AXγ protein expression was assessed by Western blot to determine if the lead compound could cause DNA damage in cells, and compared to Etoposide as a control (FIG. 3b). […]

Topo IIα [1] = target: T1, Topo IIα (Homo sapiens, UniProt P11388); test: DNA relaxation assay with supercoiled pHOT plasmid; type: biochemical; set-up: purchased TopoGENE (TopoGEN) TG2000H; details: 0-50 μM, 37° C., 1 hour
T1 sequence (P11388 whole entry): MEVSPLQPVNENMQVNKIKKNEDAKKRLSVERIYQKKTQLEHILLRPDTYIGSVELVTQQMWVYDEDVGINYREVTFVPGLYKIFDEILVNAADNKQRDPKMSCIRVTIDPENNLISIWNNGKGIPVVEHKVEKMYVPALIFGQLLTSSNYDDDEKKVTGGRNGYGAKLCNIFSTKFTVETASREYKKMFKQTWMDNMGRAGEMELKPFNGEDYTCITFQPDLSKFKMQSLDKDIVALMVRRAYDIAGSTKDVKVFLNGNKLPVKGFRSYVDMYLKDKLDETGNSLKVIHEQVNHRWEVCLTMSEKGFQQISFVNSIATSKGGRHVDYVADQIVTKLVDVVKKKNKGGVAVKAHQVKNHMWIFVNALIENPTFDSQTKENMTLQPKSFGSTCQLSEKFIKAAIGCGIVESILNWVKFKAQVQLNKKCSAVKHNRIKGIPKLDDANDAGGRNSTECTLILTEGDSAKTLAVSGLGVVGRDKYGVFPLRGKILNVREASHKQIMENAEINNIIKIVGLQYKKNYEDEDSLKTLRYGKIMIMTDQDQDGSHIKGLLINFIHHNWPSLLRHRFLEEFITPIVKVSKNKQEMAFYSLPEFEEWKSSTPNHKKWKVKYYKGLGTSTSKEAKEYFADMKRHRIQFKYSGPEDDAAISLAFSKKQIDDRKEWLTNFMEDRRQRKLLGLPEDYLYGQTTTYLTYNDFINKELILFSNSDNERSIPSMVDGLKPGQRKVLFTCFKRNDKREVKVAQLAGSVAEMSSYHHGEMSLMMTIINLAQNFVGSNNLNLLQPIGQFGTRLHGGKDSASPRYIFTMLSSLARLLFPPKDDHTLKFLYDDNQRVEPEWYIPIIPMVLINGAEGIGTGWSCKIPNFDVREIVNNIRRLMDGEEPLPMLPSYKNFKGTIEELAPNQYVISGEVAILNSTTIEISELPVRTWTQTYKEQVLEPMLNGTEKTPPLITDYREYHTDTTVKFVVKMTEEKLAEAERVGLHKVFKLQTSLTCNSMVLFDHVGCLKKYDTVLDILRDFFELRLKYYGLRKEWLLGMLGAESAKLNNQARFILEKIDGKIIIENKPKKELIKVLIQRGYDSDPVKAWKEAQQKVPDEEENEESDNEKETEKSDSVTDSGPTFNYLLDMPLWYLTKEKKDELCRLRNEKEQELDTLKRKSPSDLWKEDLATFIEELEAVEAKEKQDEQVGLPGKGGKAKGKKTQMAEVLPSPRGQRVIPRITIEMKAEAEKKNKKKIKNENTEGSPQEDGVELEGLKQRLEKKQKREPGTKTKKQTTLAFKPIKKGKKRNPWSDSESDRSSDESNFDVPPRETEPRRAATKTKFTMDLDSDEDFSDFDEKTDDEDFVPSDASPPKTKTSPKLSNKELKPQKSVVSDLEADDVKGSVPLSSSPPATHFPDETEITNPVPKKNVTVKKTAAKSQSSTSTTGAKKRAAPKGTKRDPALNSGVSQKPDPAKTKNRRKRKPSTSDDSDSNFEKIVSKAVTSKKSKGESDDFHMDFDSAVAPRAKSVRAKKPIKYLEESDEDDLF
Procedure: as §1, with “minutes. Reactions were stopped by 1% SDS at 37° C. for 15 minutes. DNA products were separated by electrophoresis on a 1% agarose gels and visualized by ethium bromide staining.” for “minutes.”

Topo IIα [2] = target: T1, Topo IIα; test: Thermal shift assay in cells; type: binding; set-up: endogenous in cells; host or cells: K562; details: K562 cells, 20 μM
Procedure: (§2) Whole cell lyses were collected and used to measure protein levels of TOP2α, TOP2β with β-Actin as a loading control; (b) K562 cells were treated with 0, 1, and 10 μM of Top60 for 24 hours. Protein lyses were collected from soluble nuclear extract, chromatin fraction or whole cell lysate. TOP2α and TOP2β protein levels were determined by immunoblotting with Lamin A/C, Histone H3 and β-Actin as loading controls; and (c) Etoposide-resistant K562 cell line was established by treating cells with 0.5 μM of Etoposide for 6 months. TOP2α, TOP2β, and β-actin protein levels were determined by immunoblotting. Etoposide-resistant K562 cells were treated with 0, 1, 10, 15 and 20 μM of Top60, Etoposide or ICRF187 for 48 hours. Cell proliferation rates were determined by MTS assays.
(§3) Thermal shift and chromatin fraction assays—In the thermal shift assays, cells were treated with vehicle or compound #60 (Top60) for 1 hour, split into equal aliquots to be heated at 37 to 46 degrees in a PCR machine. Protein lyses were collected to perform immunoblotting assays with Topo II antibodies. In the chromatin fraction assays, cells were treated with vehicle or compound #60 (Top60). Both soluble and chromatin associated proteins were fractioned following the protocol described by Wysocka J et al.^18. Protein lyses were collected to perform immunoblotting assays with Topo II antibodies. […]

Topo IIα [3] = target: T1, Topo IIα; test: Chromatin fraction assay; type: cell-based; set-up: endogenous in cells; host or cells: K562; details: K562 cells, 0, 1 and 10 μM, 24 hours
Procedure: as §2, §3

IC50 in the relaxation assay (Topo IIα [1]): nanomolar | temperature up to which Topo IIα was stabilized (Topo IIα [2]): up to 43 °C | chromatin binding of Topo IIα (Topo IIα [3]): became unbound from chromatin
Structure (SMILES): O=C(Nc1ccc(Nc2ccccc2)cc1)c1ccc[nH]c1=S [Compound 60]
DNA intercalation (pHOT plasmid DNA): not an intercalator
